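Cultured in 96-well plates, cells were exposed to test compound for 48 hours across five concentrations. GI50: concentration for 50% inhibition of growth.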 Activity calls are given as the source filed them. Rule as the data show it: active = GI50 up to about 1.1 µM and inactive = higher.
Assays:
Experiment in all cases: inhibition of tumour cell growth, NCI panel, 48 h
[1] = tested on: KM-20L2
[2] = tested on: HCT-15
[3] = tested on: M14
[4] = tested on: HT-29
[5] = tested on: A498
[6] = tested on: LOX IMVI
[7] = tested on: CAKI-1
[8] = tested on: OVCAR-8
[9] = tested on: Malme-3M
[10] = tested on: SK-MEL-2
[11] = tested on: SF-268
[12] = tested on: EKVX
[13] = tested on: SF-295
[14] = tested on: SK-MEL-5
[15] = tested on: 786-0
[16] = tested on: SK-OV-3
[17] = tested on: RXF 393

Row | Compound | GI50 [1] | GI50 [2] [µM] | GI50 [3] | GI50 [4] | GI50 [5] | GI50 [6] | GI50 [7] | GI50 [8] | GI50 [9] | GI50 [10] | GI50 [11] | GI50 [12] | GI50 [13] | GI50 [14] | GI50 [15] | GI50 [16] | GI50 [17]
1 | O=C1c2ccccc2C(=O)N1C/C=N/NS(=O)(=O)c1ccc(Cl)cc1 | > 100 µM (inactive) | > 100 | > 100 µM (inactive) | > 100 µM (inactive) | > 100 µM (inactive) | > 100 µM (inactive) | > 100 µM (inactive) | > 100 µM (inactive) | > 100 µM (inactive) | > 100 µM (inactive) | > 100 µM (inactive) | > 100 µM (inactive) | > 100 µM (inactive) | > 100 µM (inactive) | > 100 µM (inactive) | – | –
2 | COc1ccc2cc3n(c2c1)CCc1cc(OC)c(OC)cc1-3 | > 100 µM (inactive) | – | – | > 100 µM (inactive) | 28.4 µM (inactive) | > 100 µM (inactive) | > 100 µM (inactive) | > 100 µM (inactive) | – | > 100 µM (inactive) | > 100 µM (inactive) | > 100 µM (inactive) | 51.2 µM (inactive) | – | > 100 µM (inactive) | > 100 µM (inactive) | > 100 µM (inactive)
3 | CCOC(=O)COc1cccc2c1C(=O)CCO2 | > 100 µM (inactive) | > 100 | > 100 µM (inactive) | > 100 µM (inactive) | > 100 µM (inactive) | > 100 µM (inactive) | > 100 µM (inactive) | > 100 µM (inactive) | > 100 µM (inactive) | > 100 µM (inactive) | > 100 µM (inactive) | > 100 µM (inactive) | > 100 µM (inactive) | > 100 µM (inactive) | > 100 µM (inactive) | > 100 µM (inactive) | –
4 | C/C(=C\Cc1cc(O)ccc1O)CCc1c(C)c(O)c(O)c(C=O)c1C [PANICEIN C] | 37.5 µM (inactive) | 31.4 | 25.5 µM (inactive) | 29.2 µM (inactive) | 49.2 µM (inactive) | – | 26.7 µM (inactive) | 17.9 µM (inactive) | 32.9 µM (inactive) | 23.2 µM (inactive) | 27 µM (inactive) | 36.1 µM (inactive) | 25.4 µM (inactive) | 15.5 µM (inactive) | 25.6 µM (inactive) | 26.7 µM (inactive) | 16.1 µM (inactive)
5 | Nc1ccc2nc(NCc3ccc(F)cc3)cnc2c1 | > 100 µM (inactive) | > 100 | > 100 µM (inactive) | > 100 µM (inactive) | – | > 100 µM (inactive) | – | > 100 µM (inactive) | > 100 µM (inactive) | > 100 µM (inactive) | > 100 µM (inactive) | > 100 µM (inactive) | > 100 µM (inactive) | > 100 µM (inactive) | > 100 µM (inactive) | – | 59.6 µM (inactive)
6 | COc1ccc(CC2NCCc3cc(OC)c(OC)cc32)cc1 (stereo unspecified) | > 100 µM (inactive) | > 100 | > 100 µM (inactive) | > 100 µM (inactive) | – | > 100 µM (inactive) | > 100 µM (inactive) | > 100 µM (inactive) | > 100 µM (inactive) | > 100 µM (inactive) | > 100 µM (inactive) | > 100 µM (inactive) | > 100 µM (inactive) | > 100 µM (inactive) | > 100 µM (inactive) | > 100 µM (inactive) | > 100 µM (inactive)
7 | CS(=O)(=O)NNS(=O)(=O)c1ccccc1 | > 100 µM (inactive) | > 100 | > 100 µM (inactive) | > 100 µM (inactive) | > 100 µM (inactive) | > 100 µM (inactive) | > 100 µM (inactive) | > 100 µM (inactive) | > 100 µM (inactive) | > 100 µM (inactive) | > 100 µM (inactive) | > 100 µM (inactive) | > 100 µM (inactive) | > 100 µM (inactive) | > 100 µM (inactive) | – | > 100 µM (inactive)
8 | COc1cccc(C2N3CCCCC3[C@@H]3c4[nH]c5ccccc5c4CCN23)c1OC (stereo partly specified) | 14.3 µM (inactive) | 17.1 | 16.1 µM (inactive) | 12.9 µM (inactive) | 11.4 µM (inactive) | – | 16.2 µM (inactive) | 16.5 µM (inactive) | – | 14.5 µM (inactive) | 11.5 µM (inactive) | 17.9 µM (inactive) | 17.6 µM (inactive) | 15.8 µM (inactive) | 18.3 µM (inactive) | 17.5 µM (inactive) | 13.4 µM (inactive)
9 | C[C@@H](NC1CCCC[C@H]1O)c1ccccc1 (stereo partly specified) | > 100 µM (inactive) | > 100 | > 100 µM (inactive) | > 100 µM (inactive) | > 100 µM (inactive) | > 100 µM (inactive) | – | > 100 µM (inactive) | > 100 µM (inactive) | > 100 µM (inactive) | > 100 µM (inactive) | > 100 µM (inactive) | > 100 µM (inactive) | > 100 µM (inactive) | > 100 µM (inactive) | > 100 µM (inactive) | > 100 µM (inactive)
10 | CCCCNS(=O)(=O)c1ccc(-c2ccc3c(c2)-c2ccc(S(=O)(=O)NCCCC)cc2S3(=O)=O)cc1 | 4.15 µM (inactive) | 72.8 | 17.3 µM (inactive) | 19.2 µM (inactive) | 11.4 µM (inactive) | 15 µM (inactive) | – | 7.98 µM (inactive) | 14.9 µM (inactive) | 12.9 µM (inactive) | 9.48 µM (inactive) | 39.4 µM (inactive) | 15 µM (inactive) | 2.18 µM (inactive) | 11.6 µM (inactive) | 16.9 µM (inactive) | 10.8 µM (inactive)
11 | CC1=C(C(=O)Nc2ccccc2C)C(c2ccccc2O)C(C(=O)Nc2ccccc2C)=C(C)N1 | 20.2 µM (inactive) | 16 | 18.2 µM (inactive) | 25.7 µM (inactive) | 21.4 µM (inactive) | 18.6 µM (inactive) | 23.4 µM (inactive) | 19.8 µM (inactive) | 26.7 µM (inactive) | 17.1 µM (inactive) | 33.7 µM (inactive) | 30.8 µM (inactive) | 18.6 µM (inactive) | 20 µM (inactive) | 15.3 µM (inactive) | – | 25.6 µM (inactive)
12 | [N-]=[N+]=NCC(O)Cn1cnc2c(NC(=O)c3ccccc3)ncnc21 (stereo unspecified) | > 100 µM (inactive) | > 100 | > 100 µM (inactive) | > 100 µM (inactive) | > 100 µM (inactive) | > 100 µM (inactive) | > 100 µM (inactive) | > 100 µM (inactive) | > 100 µM (inactive) | > 100 µM (inactive) | > 100 µM (inactive) | > 100 µM (inactive) | > 100 µM (inactive) | > 100 µM (inactive) | 41.8 µM (inactive) | – | > 100 µM (inactive)
13 | O=C(CC(=O)c1cccc([N+](=O)[O-])c1)C(=O)Nc1ccccc1 | > 100 µM (inactive) | > 100 | > 100 µM (inactive) | > 100 µM (inactive) | > 100 µM (inactive) | > 100 µM (inactive) | > 100 µM (inactive) | > 100 µM (inactive) | > 100 µM (inactive) | > 100 µM (inactive) | > 100 µM (inactive) | > 100 µM (inactive) | > 100 µM (inactive) | > 100 µM (inactive) | > 100 µM (inactive) | – | > 100 µM (inactive)

Reference: ChEMBL document CHEMBL1201862, “PubChem BioAssay data set” (2004)
